Test results from patent publication US12398097B2, “WDR5-MYC inhibitors” (Vanderbilt University, priority 2019, dated 2025).

Molecular target: WDR5 (Homo sapiens, UniProt P61964)
Test: Competition-based fluorescence polarization anisotropy assay
Conditions: binding to WDR5; displacement of FITC-labeled small molecule probe (analogous to Example J2 or HCH-25) or peptide probe FITC-AHx-SEEEIDVVSV; pH 6.0; Ki converted from IC50
Outline: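 Competition fluorescence polarization anisotropy binding to WDR5 using a FITC-labeled peptide probe or a fluorescently labeled small-molecule probe. Buffer: 200 mM phosphate, 300 mM NaCl, 0.5 mM TCEP, 0.1% Chaps, pH 6.0. Displacement data were converted to Ki.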

SMILES	Ki
N#CC1(c2cc(NS(=O)(=O)c3cc(Br)ccc3O)c(O)c(C(N)=O)c2)CCCCC1 [Example J232, 3-((5-Bromo-2-hydroxyphenyl)sulfonamido)-5-(l-cyanocyclohexyl)-2-hydroxybenzamide]	220 nM
CNC(=O)c1cc(C2(C#N)CCCCC2)cc(NS(=O)(=O)c2cc(Br)ccc2O)c1O [Example J233, 3-((5-Bromo-2-hydroxyphenyl)sulfonamido)-5-(1-cyanocyclohexyl)-2-hydroxy-N-methylbenzamide]	100 nM
N#CC1(c2cc(NS(=O)(=O)c3cc(Br)cc(Cl)c3O)c(O)c(C(=O)O)c2)CCCCC1 [Example J234, 3-((5-Bromo-3-chloro-2-hydroxyphenyl)sulfonamido)-5-(1-cyanocyclohexyl)-2-hydroxybenzoic acid]	20 nM
N#CC1(c2cc(NS(=O)(=O)c3cc(Br)cc(Cl)c3O)c(O)c(C(N)=O)c2)CCCCC1 [Example J235, 3-((5-Bromo-3-chloro-2-hydroxyphenyl)sulfonamido)-5-(1-cyanocyclohexyl)-2-hydroxybenzamide]	80 nM
CNC(=O)c1cc(C2(C#N)CCCCC2)cc(NS(=O)(=O)c2cc(Br)cc(Cl)c2O)c1O [Example J236, 3-((5-Bromo-3-chloro-2-hydroxyphenyl)sulfonamido)-5-(1-cyanocyclohexyl)-2-hydroxy-N-methylbenzamide]	240 nM
CS(=O)(=O)c1cc(Br)cc(NS(=O)(=O)c2cc(Br)cc(OC(F)(F)F)c2O)c1 [Example S3, 5-Bromo-N-(3-bromo-5-(methylsulfonyl)phenyl)-2-hydroxy-3-(trifluoromethoxy)benzenesulfonamide]	500 nM
CS(=O)(=O)c1cc(Cl)cc(NS(=O)(=O)c2cc(Br)cc(OC(F)(F)F)c2O)c1 [Example S4, 5-Bromo-N-(3-chloro-5-(methylsulfonyl)phenyl)-2-hydroxy-3-(trifluoromethoxy)benzenesulfonamide]	850 nM
CCc1cc(Br)cc(S(=O)(=O)Nc2cc(Cl)cc(S(C)(=O)=O)c2)c1O [Example S5, 5-Bromo-N-(3-chloro-5-(methylsulfonyl)phenyl)-3-ethyl-2-hydroxybenzenesulfonamide]	610 nM
CS(=O)(=O)c1cc(Cl)cc(NS(=O)(=O)c2cc(Br)ccc2O)c1 [Example S6, 5-Bromo-N-(3-chloro-5-(methylsulfonyl)phenyl)-2-hydroxybenzenesulfonamide]	1230 nM
CS(=O)(=O)c1cc(Cl)cc(NS(=O)(=O)c2cc(Br)cc(Cl)c2O)c1 [Example S8, 5-Bromo-3-chloro-N-(3-chloro-5-(methylsulfonyl)phenyl)-2-hydroxybenzenesulfonamide]	170 nM
CS(=O)(=O)c1cc(NS(=O)(=O)c2cc(Br)ccc2O)cc(C2CC2)c1 [Example S9, 5-Bromo-N-(3-cyclopropyl-5-(methylsulfonyl)phenyl)-2-hydroxybenzenesulfonamide]	1030 nM
CS(=O)(=O)c1cc(NS(=O)(=O)c2cc(Br)cc(Cl)c2O)cc(C2CC2)c1 [Example S10, 5-Bromo-3-chloro-N-(3-cyclopropyl-5-(methylsulfonyl)phenyl)-2-hydroxybenzenesulfonamide]	170 nM
CS(=O)(=O)c1cc(NS(=O)(=O)c2cc(Br)ccc2O)cc(OC(F)(F)F)c1 [Example S11, 5-Bromo-2-hydroxy-N-(3-(methylsulfonyl)-5-(trifluoromethoxy)phenyl)benzenesulfonamide]	820 nM
CS(=O)(=O)c1cc(NS(=O)(=O)c2cc(Br)cc(Cl)c2O)cc(OC(F)(F)F)c1 [Example S12, 5-Bromo-3-chloro-2-hydroxy-N-(3-(methylsulfonyl)-5-(trifluoromethoxy)phenyl)benzenesulfonamide]	70 nM
CS(=O)(=O)c1cc(NS(=O)(=O)c2cc(Br)ccc2O)cc(S(F)(F)(F)(F)F)c1 [Example S13, 5-Bromo-2-hydroxy-N-(3-(methylsulfonyl)-5-(pentafluoro-λ^6-sulfaneyl)phenyl)benzenesulfonamide]	420 nM
CS(=O)(=O)c1cc(NS(=O)(=O)c2cc(Br)cc(Cl)c2O)cc(S(F)(F)(F)(F)F)c1 [Example S14, 5-Bromo-3-chloro-2-hydroxy-N-(3-(methylsulfonyl)-5-(pentafluoro-λ^6-sulfaneyl)phenyl)benzenesulfonamide]	30 nM
O=S(=O)(Nc1cc(C2CC2)cc(S(=O)(=O)C2CCCO2)c1)c1cc(Br)ccc1O (stereo not shown) [Example S15-2]	8620 nM
O=S(=O)(Nc1cc(C2CC2)cc(S(=O)(=O)C2CCCO2)c1)c1cc(Br)cc(Cl)c1O (stereo not shown) [Example S16, 5-Bromo-3-chloro-N-(3-cyclopropyl-5-((tetrahydrofuran-2-yl)sulfonyl)phenyl)-2-hydroxybenzenesulfonamide]	200 nM
CS(=O)(=O)c1cc(Cl)cc(NS(=O)(=O)c2cc(Br)cc(Cl)c2O)c1O [Example S16-2, 5-Bromo-3-chloro-N-(5-chloro-2-hydroxy-3-(methylsulfonyl)phenyl)-2-hydroxybenzenesulfonamide]	20 nM

SMILES	Ki
CS(=O)(=O)c1cc(Cl)cc(NS(=O)(=O)c2cc(Br)ccc2O)c1O [Example S17, 5-Bromo-N-(5-chloro-2-hydroxy-3-(methylsulfonyl)phenyl)-2-hydroxybenzenesulfonamide]	90 nM
CS(=O)(=O)c1cc(S(F)(F)(F)(F)F)cc(NS(=O)(=O)c2cc(Br)cc(Cl)c2O)c1O [Example S18, 5-Bromo-3-chloro-2-hydroxy-N-(2-hydroxy-3-(methylsulfonyl)-5-(pentafluoro-λ^6-sulfaneyl)phenyl)benzenesulfonamide]	30 nM
CS(=O)(=O)c1cc(S(F)(F)(F)(F)F)cc(NS(=O)(=O)c2cc(Br)ccc2O)c1O [Example S19, 5-Bromo-2-hydroxy-N-(2-hydroxy-3-(methylsulfonyl)-5-(pentafluoro-λ^6-sulfaneyl)phenyl)benzenesulfonamide]	100 nM
CS(=O)(=O)c1cc(S(F)(F)(F)(F)F)cc(NS(=O)(=O)c2ccc(Br)cc2O)c1O [Example S20, 4-Bromo-2-hydroxy-N-(2-hydroxy-3-(methylsulfonyl)-5-(pentafluoro-λ6-sulfaneyl)phenyl)benzenesulfonamide]	4300 nM
CCS(=O)(=O)c1cc(Cl)cc(NS(=O)(=O)c2cc(Br)cc(Cl)c2O)c1O [Example S21, 5-Bromo-3-Chloro-N-(5-chloro-3-(ethylsulfonyl)-2-hydroxyphenyl)-2-hydroxybenzenesulfonamide]	240 nM
CCS(=O)(=O)c1cc(Cl)cc(NS(=O)(=O)c2cc(Br)ccc2O)c1O [Example S22, 5-Bromo-N-(5-chloro-3-(ethylsulfonyl)-2-hydroxyphenyl)-2-hydroxybenzenesulfonamide]	250 nM
CC(C)S(=O)(=O)c1cc(Cl)cc(NS(=O)(=O)c2cc(Br)cc(Cl)c2O)c1O [Example S23.1, 5-Bromo-3-chloro-N-(5-chloro-2-hydroxy-3-(isopropylsulfonyl)phenyl)-2-hydroxybenzenesulfonamide]	130 nM
CC(C)[S+]([O-])c1cc(Cl)cc(NS(=O)(=O)c2cc(Br)cc(Cl)c2O)c1O (stereo not shown) [Example S23.2, 5-Bromo-3-chloro-N-(5-chloro-2-hydroxy-3-(isopropylsulfinyl)phenyl)-2-hydroxybenzenesulfonamide]	330 nM
CC(C)[S+]([O-])c1cc(Cl)cc(NS(=O)(=O)c2cc(Br)ccc2O)c1O (stereo not shown) [Example S23.3, 5-Bromo-N-(5-chloro-2-hydroxy-3-(isopropylsulfinyl)phenyl)-2-hydroxybenzenesulfonamide]	360 nM
CS(=O)(=O)c1cc(C(F)(F)F)cc(NS(=O)(=O)c2cc(Br)ccc2O)c1O [Example S25, 5-Bromo-3-2-hydroxy-N-(2-hydroxy-3-(methylsulfonyl)-5-(trifluoromethyl)phenyl)benzenesulfonamide]	90 nM
CS(=O)(=O)c1cc(C2CC2)cc(NS(=O)(=O)c2cc(Br)cc(Cl)c2O)c1O [Example S25-2, 5-Bromo-3-chloro-N-(5-cyclopropyl-2-hydroxy-3-(methylsulfonyl)phenyl)-2-hydroxybenzenesulfonamide]	100 nM
CS(=O)(=O)c1cc(C2CC2)cc(NS(=O)(=O)c2cc(Br)ccc2O)c1O [Example S26, 5-Bromo-N-(5-cyclopropyl-2-hydroxy-3-(methylsulfonyl)phenyl)-2-hydroxybenzenesulfonamide]	240 nM
NS(=O)(=O)c1cc(Cl)cc(NS(=O)(=O)c2cc(Br)cc(Cl)c2O)c1O [Example S27, 5-Bromo-3-chloro-N-(5-chloro-2-hydroxy-3-sulfamoylphenyl)-2-hydroxybenzenesulfonamide]	360 nM
CNS(=O)(=O)c1cc(Cl)cc(NS(=O)(=O)c2cc(Br)cc(Cl)c2O)c1O [Example S28, 5-bromo-3-chloro-N-(5-chloro-2-hydroxy-3-(N-methylsulfamoyl)phenyl)-2-hydroxybenzenesulfonamide]	20700 nM
CNS(=O)(=O)c1cc(Cl)cc(NS(=O)(=O)c2cc(Br)ccc2O)c1O [Example S29, 5-bromo-N-(5-chloro-2-hydroxy-3-(N-methylsulfamoyl)phenyl)-2-hydroxybenzenesulfonamide]	15500 nM
COCCNS(=O)(=O)c1cc(Cl)cc(NS(=O)(=O)c2cc(Br)cc(Cl)c2O)c1O [Example S30, 5-bromo-3-chloro-N-(5-chloro-2-hydroxy-3-(N-(2-methoxyethyl)sulfamoyl)phenyl)-2-hydroxybenzenesulfonamide]	3050 nM
COCCNS(=O)(=O)c1cc(Cl)cc(NS(=O)(=O)c2cc(Br)ccc2O)c1O [Example S31, 5-bromo-N-(5-chloro-2-hydroxy-3-(N-(2-methoxyethyl)sulfamoyl)phenyl)-2-hydroxybenzenesulfonamide]	650 nM
O=S(=O)(Nc1cc(Cl)cc(S(=O)(=O)NCC2CCCO2)c1O)c1cc(Br)cc(Cl)c1O (stereo not shown) [Example S32, 5-Bromo-3-chloro-N-(5-chloro-2-hydroxy-3-(N-((tetrahydrofuran-2-yl)methyl)sulfamoyl)phenyl)-2-hydroxybenzenesulfonamide]	440 nM
